According to US20130345215A1, “PYRAZOLOPYRIMIDONE AND PYRAZOLOPYRIDONE INHIBITORS OF TANKYRASE” (Genentech, Inc., priority 2012, published 2013):
Like-named read-outs stand apart in the source and are kept apart here.

Key:
Tankyrase 1 (TNKS1) = target: T1, Tankyrase 1 (TNKS1) (Homo sapiens, UniProt O95271); experiment: μHTS-TNKS-IWR2 TR-FRET Binding Assay (Example 118), His6-TNKS1
T1 construct: His6-TNKS1, MW=28.2 KDa (construct: 1088-1327, 1266M)
Method: (§1) μHTS-TNKS-IWR2 TR-FRET Binding Assay (10 μL/well in BD1536-well plate, a single point)
(§2) Reagents and Stock Solutions
(§3) Biotin-4-((1S,2R,6S,7R)-3,5-Dioxo-4-aza-tricyclo[5.2.1.0*2,6]dec-8-en-4-yl)-N-(4-methyl-quinolin-8-yl)-benzamide (Biotin-IWR2): 10 mM Biotin-IWR2 stock in DMSO, stored at −20° C.
(XAV939) in DMSO, stored at −20° C.
(§4) Assay buffer 1a (AB1a) for TNKS dilution: 50 mM Tris, pH 7.4, 100 mM sodium chloride solution, 1 mM magnesium chloride solution, 1 mM DL-dithiothreitol solution, 0.2 mg/mL bovine serum albumin solution, 0.025% NP-40.
(§5) Assay buffer 1b (AB1b) for Biotin-IWR2 dilution: 50 mM Tris, pH 7.4, 100 mM sodium chloride solution, 1 mM magnesium chloride solution, 1 mM DL-dithiothreitol solution, 0.2 mg/mL bovine serum albumin solution, 0.05% NP-40
(§6) Assay buffer 1c (AB1c) for compound dilution: 50 mM Tris, pH 7.4, 100 mM sodium chloride solution, 1 mM magnesium chloride solution, 1 mM DL-dithiothreitol solution, 0.2 mg/mL bovine serum albumin solution
(§7) Assay buffer 2 (AB2) for Eu/APC: 50 mM Tris, pH 7.4, 100 mM sodium chloride solution, 1 mM magnesium chloride solution, 0.2 mg/mL bovine serum albumin solution
(§8) Reagent Stock Solution Preparation
(§9) Prepare BLANK well stock solution: 5% DMSO/AB1b buffer
(§10) Prepare TNKS 1 stock solution (5× stock): 300 nM TNKS in AB1a buffer. (Alternatively, use TNKS2 or PARP1 stock solutions.)
Transfer 3 μL/well of above solution (solution 1,2,3) to an empty assay plate (BD1536-well plate) as follows: • TOTAL and cpd wells: Solution 1 (Biotin-IWR2): • BLANK wells: Solution 2 (No Biotin-IWR2): • POSITIVE CONTROL wells: Solution 3 (Biotin-IWR2+XAV939)
(§11) Transfer 3 μL/well of the above diluted compound solutions or compound dilution buffer to the above assay plate. Add 2 μL/well of 300 nM TNKS stock solution (4) to every well in the above assay plate. Centrifuge the assay plate at 2100 rpm for 2 min. Incubate the assay plate at 26° C. for 30 minutes. Add 2 μL/well 3.5 nMEu/50 nM APC solution (5) to every well in the above assay plate. Centrifuge the assay plate at 2100 rpm for 2 min. Incubate the assay plate at 26° C. for 60 min.

tankyrase 2 (TNKS2) = target: T2, tankyrase 2 (TNKS2) (Homo sapiens, UniProt Q9H2K2); experiment: μHTS-TNKS-IWR2 TR-FRET Binding Assay (Example 118), His6-TNKS2 substituted; settings: procedure in Example 118 with His6-TNKS2
T2 construct: His6-tankyrase 2 (construct: 934-1166) (His6-TNKS2)
T2 sequence (Q9H2K2 934-1166): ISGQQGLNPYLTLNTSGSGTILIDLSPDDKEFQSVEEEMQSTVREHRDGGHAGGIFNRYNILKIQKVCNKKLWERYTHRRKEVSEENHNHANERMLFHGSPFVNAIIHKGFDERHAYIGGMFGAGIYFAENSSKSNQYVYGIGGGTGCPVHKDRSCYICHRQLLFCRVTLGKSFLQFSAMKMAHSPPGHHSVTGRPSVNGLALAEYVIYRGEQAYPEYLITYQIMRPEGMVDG
Method: as §1, §2
Tankyrase 1 (TNKS1): 184.3 μM=5.2 mg/mL His6-TNKS1, MW=28.2 KDa (construct: 1088-1327, 1266M) in 20 mM Tris pH 8, 150 mM NaCl, 10% glycerol, and 0.5 mM TCEP. Alternatively, His6-tankyrase 2 (construct: 934-1166) (His6-TNKS2) or His6-PARP1 (full length) can be substituted for His6-TNKS 1.
as §3
Positive control: 10 mM 2-(4-Trifluoromethyl-phenyl)-3,5,7,8-tetrahydro-thiopyrano[4,3-d]pyrimidin-4-one (XAV939) in DMSO, stored at −20° C.
APC-anti-His Ab: 8.50 μM SL-APC, 8.26 μM anti-6His antibody-SureLight APC (Columia Bioscience, Catalog Number D3-1711, Lot Number N01010-AAH04)
Assay plate: BD 1536-well, clear/black plate (Catalog Number 353255)
as §4, §5, §6, §7, §8
Prepare Biotinylated IWR2 stock solution (3.33× stock) for TOTL and compound wells: 200 nM Biotin-IWR2 in 5% DMSO/AB1b buffer
as §9
Prepare POSITIVE CONTROL well stock solution (3.33× stock): 200 nM XAV939 in 200 nM Biotin-IWR2/5% DMSO/AB1b buffer
as §10
Prepare Eu/APC stock solution (5× stock): 3.5 nM Eu-SA/50 nM APC-His6Ab in AB2 buffer.
Add 25 μL/well 1.5% DMSO/AB1c buffer in each compound well to the compound concentration at 74 μM in 8.8% DMSO/AB1c buffer or in the 2 μL DMSO CONTROL wells (BLANK, TOTAL and POSITIVE wells) in the compound plate. Transfer 3 μL/well of above solution (solution 1,2,3) to an empty assay plate (BD1536-well plate) as follows: • TOTAL and cpd wells: Solution 1 (Biotin-IWR2): • BLANK wells: Solution 2 (No Biotin-IWR2): • POSITIVE CONTROL wells: Solution 3 (Biotin-IWR2+XAV939)
as §11, with “60 min. Read the assay plate immediately at excitation wavelength of 330 nm and emission wavelength of […] in time resolved fluorescence mode.” for “60 min.”
XAV939 (+ve control): 60 nM at ˜70% Inhibition
General Library compounds: 22.23 μM in 4% DMSO

T1 sequence (O95271 1088-1327): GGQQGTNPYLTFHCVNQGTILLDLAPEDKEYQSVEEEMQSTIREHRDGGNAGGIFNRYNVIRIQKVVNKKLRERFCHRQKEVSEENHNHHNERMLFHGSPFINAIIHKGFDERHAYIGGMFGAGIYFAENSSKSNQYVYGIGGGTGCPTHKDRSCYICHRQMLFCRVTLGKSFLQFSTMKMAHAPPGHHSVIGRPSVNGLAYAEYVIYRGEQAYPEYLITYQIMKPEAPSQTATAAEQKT

IC50 (Tankyrase 1 (TNKS1)) [nM] | IC50 (tankyrase 2 (TNKS2)) [nM] | Molecule | IC50 (Tankyrase 1 (TNKS1); Compounds I-1 to I-58, procedure in Example 118 (TR-FRET, Biotin-IWR2 60 nM, TNKS 60 nM), read-out: TNKS1 (IC50)) [nM]
31 | 37.6 | Cn1ncc2c(=O)[nH]c(N3CCC(c4ccc(F)cc4)CC3)nc21 [Compound I-5, 6-[4-(4-fluorophenyl)-1-piperidyl]-1-methyl-5H-pyrazolo[3 4-d]pyrimidin-4-one] | –
29 | 30.4 | Cn1ncc2c(=O)[nH]c(N3CCN(c4ncccc4C(F)(F)F)CC3)cc21 [Compound I-26, 1-methyl-6-[4-[3-(trifluoromethyl)-2-pyridyl]piperazin-1-yl]-5H-pyrazolo[4 3-c]pyridin-4-one] | –
105 | 176 | O=c1[nH]c(N2CCN(c3ccccc3F)CC2)cc2[nH]ncc12 [Compound I-12, 6-[4-(2-fluorophenyl)piperazin-1-yl]-1 5-dihydropyrazolo[4 3-c]pyridin-4-one] | –
331 | 303 | Cn1ncc2c(=O)[nH]c(N3CCN(c4ccc(F)c(C(F)(F)F)c4)CC3)nc21 [Compound I-39, 6-[4-(4-fluoro-3-(trifluoromethyl)phenyl]piperazin-1-yl]-1-methyl-5H-pyrazolo[3 4-d]pyrimidin-4-one] | –
103 | 97 | Cn1ncc2c(=O)[nH]c(N3CCN(c4ccccc4C#N)CC3)cc21 [Compound I-17, 2-[4-(1-methyl-4-oxo-5H-pyrazolo[4 3-c]pyridin-6-yl)piperazin-1-yl]benzonitrile] | –
108 | 159 | O=c1[nH]c(N2CCC(c3ccc(F)cc3)CC2)cc2[nH]ncc12 [Compound I-11, 6-[4-(4-fluorophenyl)-1-piperidyl]-1 5-dihydropyrazolo[4 3-c]pyridin-4-one] | –
31 | 43.2 | Cn1ncc2c(=O)[nH]c(N3CCN(c4ncccc4C(F)(F)F)CC3)nc21 [Compound I-20, 1-methyl-6-[4-[3-(trifluoromethyl)-2-pyridyl]piperazin-1-yl]-5H-pyrazolo[3 4-d]pyrimidin-4-one] | –
25 | 23.1 | Cn1ncc2c(=O)[nH]c(N3CCN(c4c(F)cccc4F)CC3)cc21 [Compound I-51, 6-[4-(2 6-difluorophenyl)piperazin-1-yl]-1-methyl-5H-pyrazolo[4 3-c]pyridin-4-one] | –
32 | 21.7 | Cn1ncc2c(=O)[nH]c(N3CCC(C#N)(c4ccc(F)cc4)CC3)nc21 [Compound I-33, 4-(4-fluorophenyl)-1-(1-methyl-4-oxo-5H-pyrazolo[3 4-d]pyrimidin-6-yl)piperidine-4-carbonitrile] | –
57 | 66.8 | Cn1ncc2c(=O)[nH]c(N3CCC(O)(c4ccccc4)CC3)nc21 [Compound I-23, 6-(4-hydroxy-4-phenyl-1-piperidyl)-1-methyl-5H-pyrazolo[3 4-d]pyrimidin-4-one] | –
61 | 93.9 | Cn1ncc2c(=O)[nH]c(N3CCN(c4ccnc(Cl)c4Cl)CC3)nc21 [Compound I-46, 6-[4-(2 3-dichloro-4-pyridyl)piperazin-1-yl]-1-methyl-5H-pyrazolo[3 4-d]pyrimidin-4-one] | –
44 | 45.1 | Cn1ncc2c(=O)[nH]c(N3CCN(c4ccc(F)cc4S(C)(=O)=O)CC3)cc21 [Compound I-25, 6-[4-(4-fluoro-2-methylsulfonyl-phenyl)piperazin-1-yl]-1-methyl-5H-pyrazolo[4 3-c]pyridin-4-one] | –
28 | 33 | CCC(=O)c1cc(F)c(N2CCN(c3nc4c(cnn4C)c(=O)[nH]3)CC2)c(F)c1 [Compound I-45, 6-[4-(2 6-difluoro-4-propanoyl-phenyl)piperazin-1-yl]-1-methyl-5H-pyrazolo[3 4-d]pyrimidin-4-one] | –
66 | 56.4 | Cn1ncc2c(=O)[nH]c(N3CCN(c4cc(O)cc(F)c4F)CC3)nc21 [Compound I-57, 6-[4-(2 3-difluoro-5-hydroxy-phenyl)piperazin-1-yl]-1-methyl-5H-pyrazolo[3 4-d]pyrimidin-4-one] | –

Molecule | IC50 (Tankyrase 1 (TNKS1)) [nM] | IC50 (tankyrase 2 (TNKS2)) [nM] | IC50 (Tankyrase 1 (TNKS1); Compounds I-1 to I-58, procedure in Example 118 (TR-FRET, Biotin-IWR2 60 nM, TNKS 60 nM), read-out: TNKS1 (IC50)) [nM]
6-[4-(3 5-dichloro-4- pyridyl)piperazin-1-yl]-1- methyl-5H-pyrazolo[4 3- c]pyridin-4-one [Compound I-47] | – | 29.1 | 26
